From patent US20250228865A1, “COMPOUNDS FOR ENHANCING READ THROUGH OF GENES CONTAINING PREMATURE TERMINATION CODONS AND METHODS FOR MAKING AND USING THE SAME” (Sanofi US Services Inc., priority 2022, published 2025)

Assays:
[1] = system: recombinant human CFTR carrying the premature stop codon (PTC) mutation G542X; assay: CFTR-PTC mutant translation readthrough, Nanoluc tagged CFTR luminescence (G542X cell line); format: cell-based; details: in combination with G418, G542X cell line; for CFTR G542X ACTIVITY Fold 10 μM G-418: fold over 10 μM G-418; for EC50: 16HBE cells
Procedure: 16HBE human bronchial epithelial cells (stably over-expressing recombinant human CFTR carrying the premature stop codon (PTC) mutation G542X or R1162X along with a Nanoluc tag incorporated into the CFTR channel within extracellular loop 4 in G542X cell line or C-terminus end in the R1162X cell line were seeded at 0.01×10^6 cells/well and grown in Minimal Essential Medium (MEM) as monolayers in 384 well plates and incubated at 37° C. with 5% CO2. Media was changed every other day until day of experiment. Agents to be evaluated were made up in separate 384 well, polypropylene plates at a 2X the final desired test concentration. Test agent 10-point concentration response curves were constructed using the Labcyte Echo 555 acoustic dispenser. Test agents were typically tested at a max final test concentrations of 50 μM with sequential 2-fold lower concentrations below this in the absence or presence of a fixed 10 μM concentration of the aminoglycoside G418 made up in MEM growth media (reduced Serum Media+HEPES Buffer+2.4 g/L Sodium Bicarbonate+L-Glutamine containing CFTR corrector VX-809 (3 μM)). Treatment with 10 μM G418 alone produced approximately 10% of the response observed with a maximally effective concentration of G418 (typically 125-250 μM). Test agent effects in presence of 10 μM G418 were compared to control wells on the plate containing a maximally effective concentration of G418 (typically 125-250 μM) made up in the same media. 25 ul of test agents/control solutions were transferred from the compound plate to the cell plate, which already contained 25 ul/well of cell plating media, using an Integra Viaflo 384. Cell plates were incubated with the compounds for 48 hours, at which time they were processed using Nanoluc luminescence Kit (Promega Nano-Glo Live Cell Assay System) to measure CFTR-PTC mutant translation readthrough. Luminescence was measured as follows. Cell plates were removed from the incubator and allowed to equilibrate to room temperature for 20 minutes. Media was removed from all wells and the plates were blotted to remove excess remaining volume. Nano-Glo Live Cell Substrate was diluted 1:20 in the appropriate amount of Nano-Glo LCS Dilution Buffer to accommodate the number of cell plates being tested. The substrate/dilution buffer mix was then diluted 1:3 with MEM media to make the appropriate volume for the number of plates being tested. The substrate/dilution buffer/OptiMEM mix was added across the Nanoluc testing cell plates and the plates were read for luminescence signal immediately. Test agent effects on CFTR translation readthrough was determined by normalizing any observed increase in luminescence induced by 48 hours pretreatment with test compound to the magnitude of luminescence increase produced by pretreatment with a maximally effective concentration of the reference readthrough enhancing agent G418 (125-250 μM).

[2] = system: recombinant human CFTR carrying the premature stop codon (PTC) mutation R1162X; assay: CFTR-PTC mutant translation readthrough, Nanoluc tagged CFTR luminescence (R1162X cell line); format: cell-based; details: for CFTR R1162X ACTIVITY Fold 10 μM G-418: fold over 10 μM G-418, in combination with G418; for EC50: in combination with G418, 16HBE cells, read-out: CFTR R1162X ACTIVITY EC50
Method in brief: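 Readthrough is the 48 h compound-induced luminescence increase scaled to that of maximal G418 (125-250 μM). Compounds run from 50 μM final in 2-fold steps, ±10 μM G418, on 16HBE lines carrying Nanoluc-tagged CFTR G542X (extracellular loop 4 tag) or R1162X (C-terminal tag), with 3 μM VX-809 present.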

Row | Compound | CFTR G542X ACTIVITY Fold 10 μM G-418 [1] | EC50 [1] [nM] | CFTR R1162X ACTIVITY Fold 10 μM G-418 [2] | EC50 [2] [nM]
1 | OCc1ccn(-c2ccc(OCc3c(Cl)cccc3Cl)cc2)n1 [[1-[4-[(2,6-dichlorophenyl)methoxy]phenyl]pyrazol-3-yl]methanol] | A′ (A′ = ≥10X) | < 1000 | A′ (A′ = ≥10X) | 1000 to 10000
2 | O=C1N[C@@H](CO)CN1c1ncc(OCc2c(Cl)cccc2C(F)(F)F)cn1 [(4R)-1-(5-{[2-chloro-6-(trifluoromethyl)phenyl]methoxy}pyrimidin-2-yl)-4-(hydroxymethyl)imidazolidin-2-one] | C′ (C′ = <5X) | 1000 to 10000 | C′ (C′ = <5X) | 1000 to 10000
3 | CC1CN(c2ncc(OCc3c(Cl)cccc3Cl)cn2)CCC1O (stereo not drawn) [1-[5-[(2,6-dichlorophenyl)methoxy]pyrimidin-2-yl]-3-methyl-piperidin-4-ol] | A′ (A′ = ≥10X) | < 1000 | A′ (A′ = ≥10X) | < 1000
4 | OCC1(F)CCN(c2ncc(OCc3c(Cl)cccc3Cl)cn2)CC1 [[1-[5-[(2,6-dichlorophenyl)methoxy]pyrimidin-2-yl]-4-fluoro-4-piperidyl]methanol] | A′ (A′ = ≥10X) | < 1000 | A′ (A′ = ≥10X) | < 1000
5 | Cc1cccc(C(F)(F)F)c1COc1cnc(-c2cc(CO)on2)nc1 | A′ (A′ = ≥10X) | < 1000 | A′ (A′ = ≥10X) | 1000 to 10000
6 | Cc1cccc(C)c1COc1ccc(N2CC(CO)OC2=O)c2ccccc12 (stereo not drawn) [3-[4-[(2,6-dimethylphenyl)methoxy]-1-naphthyl]-5-(hydroxymethyl)oxazolidin-2-one] |  | > 10000 | C′ (C′ = <5X) | > 10000
7 | Cc1cccc(C(F)(F)F)c1COc1cnc(N2CCO[C@H](CN)C2)nc1 | A′ (A′ = ≥10X) | < 1000 | A′ (A′ = ≥10X) | < 1000
8 | NC(=O)N1CCN(c2ncc(OCc3c(Cl)cccc3Cl)cn2)CC1CO (stereo not drawn) | A′ (A′ = ≥10X) | < 1000 | A′ (A′ = ≥10X) | < 1000
9 | O=C1OC(CO)CN1c1cnc(OCc2c(Cl)cccc2Cl)cn1 (stereo not drawn) | B′ (B′ = ≥5X to <10X) | 1000 to 10000 | B′ (B′ = ≥5X to <10X) | > 10000
10 | O=C1CN(Cc2ccccc2)C(=O)N1c1ncc(OCc2ccccc2)cn1 [1-benzyl-3-(5-benzyloxypyrimidin-2-yl)imidazolidine-2,4-dione] | A′ (A′ = ≥10X) | < 1000 | A′ (A′ = ≥10X) | 1000 to 10000
11 | Cc1cccc(C(F)(F)F)c1COc1cnc(-n2cc(-c3ccccn3)nn2)nc1 | A′ (A′ = ≥10X) | < 1000 | B′ (B′ = ≥5X to <10X) | < 1000
12 | CCCCN1CC(=O)N(c2ncc(OCc3c(Cl)cccc3Cl)cn2)C1=O [1-butyl-3-[5-[(2,6-dichlorophenyl)methoxy]pyrimidin-2-yl]imidazolidine-2,4-dione] |  | > 10000 | C′ (C′ = <5X) | > 10000
13 | CNCC1CN(c2ncc(OCc3c(Cl)cccc3Cl)cn2)CCO1 (stereo not drawn) | B′ (B′ = ≥5X to <10X) | 1000 to 10000 | B′ (B′ = ≥5X to <10X) | 1000 to 10000
14 | OCc1cn(-c2ccc(OCc3cc(Cl)cc(Cl)c3)cc2)cn1 [[1-[4-[(3,5-dichlorophenyl)methoxy]phenyl]imidazol-4-yl]methanol] |  | 1000 to 10000 | C′ (C′ = <5X) | > 10000
15 | O=C1OC(CO)CN1c1ccc(OCc2c(Cl)cccc2Cl)cn1 (stereo not drawn) [3-[5-[(2,6-dichlorophenyl)methoxy]-2-pyridyl]-5-(hydroxymethyl)oxazolidin-2-one] | A′ (A′ = ≥10X) | 1000 to 10000 | A′ (A′ = ≥10X) | 1000 to 10000
16 | OCc1ccn(-c2ncc(OCc3c(Cl)cccc3OC(F)(F)F)cn2)n1 | A′ (A′ = ≥10X) | < 1000 | B′ (B′ = ≥5X to <10X) | 1000 to 10000
17 | OCc1ncn(-c2ccc(OCc3c(Cl)cccc3C(F)(F)F)cc2)n1 | A′ (A′ = ≥10X) | < 1000 | A′ (A′ = ≥10X) | 1000 to 10000
18 | Cc1cccc(C(F)(F)F)c1COc1ccc(-n2cnc(CO)c2)nc1 | A′ (A′ = ≥10X) | < 1000 | A′ (A′ = ≥10X) | 1000 to 10000
19 | OCCn1cc(-c2ccc(OCc3c(Cl)cccc3Cl)cc2)nn1 [2-[4-[4-[(2,6-dichlorophenyl)methoxy]phenyl]triazol-1-yl]ethanol] | B′ (B′ = ≥5X to <10X) | 1000 to 10000 | A′ (A′ = ≥10X) | 1000 to 10000
20 | O=C1O[C@H](CO)CN1c1ncc(OCc2c(Cl)cccc2C(F)(F)F)cn1 [(5S)-3-(5-{[2-chloro-6-(trifluoromethyl)phenyl]methoxy}pyrimidin-2-yl)-5-(hydroxymethyl)-1,3-oxazolidin-2-one] | C′ (C′ = <5X) | 1000 to 10000 | C′ (C′ = <5X) | > 10000
21 | Clc1cccc(Cl)c1COc1cnc(N2CCC3(CCO3)C2)nc1 (stereo not drawn) [7-[5-[(2,6-dichlorophenyl)methoxy]pyrimidin-2-yl]-1-oxa-7-azaspiro[3.4]octane] | A′ (A′ = ≥10X) | < 1000 | A′ (A′ = ≥10X) | 1000 to 10000
22 | Cc1cccc(C(F)(F)F)c1COc1cnc(N2CCC[C@H](O)C2)nc1 | A′ (A′ = ≥10X) | < 1000 | A′ (A′ = ≥10X) | < 1000
23 | Cc1cccc(OC(F)F)c1COc1cnc(-n2ccc(CO)n2)nc1 | A′ (A′ = ≥10X) | 1000 to 10000 | C′ (C′ = <5X) | 1000 to 10000
24 | O=C(O)C1CCN(c2ncc(OCc3c(Cl)cccc3C(F)(F)F)cn2)CC1 [1-(5-{[2-chloro-6-(trifluoromethyl)phenyl]methoxy}pyrimidin-] | C′ (C′ = <5X) | 1000 to 10000 | C′ (C′ = <5X) | 1000 to 10000
25 | FC1(F)CCN(c2ncc(OCc3c(Cl)cccc3C(F)(F)F)cn2)C1 | A′ (A′ = ≥10X) | 1000 to 10000 | A′ (A′ = ≥10X) | 1000 to 10000
26 | NC(=O)N1CCCN(c2ncc(OCc3c(Cl)cccc3Cl)cn2)CC1 [4-[5-[(2,6-dichlorophenyl)methoxy]pyrimidin-2-yl]-1,4-diazepane-1-carboxamide] | A′ (A′ = ≥10X) | 1000 to 10000 | A′ (A′ = ≥10X) | 1000 to 10000
27 | Cc1cccc(C(F)(F)F)c1COc1ccc(N2CC(=O)N(C)C2=O)nc1 | A′ (A′ = ≥10X) | < 1000 | A′ (A′ = ≥10X) | < 1000
